Experiments:
S. cerevisiae = assay type: cell-based, Saccharomyces cerevisiae
Text: The third primary library (PL3) mediates TAN-1612 high-titer toxicity by merging three complimentary routes. This example (i) optimizes performance of an efflux pump in order to reduce intracellular TAN-1612 concentrations, (ii) screens a large number of wild yeast isolates for higher TAN-1612 tolerance and use them for background crossing and (iii) evolves the v2.0 producer for TAN-1612 resistance through random mutagenesis and selection. In preliminary results, TAN-1612 and anhydrotetracycline (Atc) growth inhibition in concentrations of 10 mg/L was confirmed. In order to increase TAN-1612 tolerance the v2.0 producer co-expresses the supposed efflux pump […]_48051 (GenBank: EHA19824.1) that was obtained by genome-mining from the natural producer strain A. niger. […] This can improve pump performance via gene titration and genome-mines other efflux pumps. PL3 further includes of a large number (>50) of wild S. cerevisiae isolates that are screened for higher tolerance to TAN-1612 using a growth-based microtiter plate assay.

[1] = tested on: Saccharomyces cerevisiae BJ5464; assay: Toxicity assay of TAN-1612 in Saccharomyces cerevisiae; assay type: cell-based
Method: The toxicity assay of TAN-1612 in Saccharomyces cerevisiae. BJ5464 strains were cultured in complete synthetic medium in presence of different tetracycline or its analogs. […] (FIG. 42B) BJ5464 strains were cultured in YPD: non-defined medium in presence of different tetracycline or its analogs. (FIG. 42A). […] (FIG. 43).

[2] = tested on: cofactor F420 reductase from Methanobacterium thermoautotrophicum; settings: as substrate of the F420 reductase; cited from earlier work
[3] = cited from earlier work

SMILES	growth inhibition in concentrations of (S. cerevisiae) [mg/L]	Relative rate of acid hydrolysis (to OMe) [3]	other results
COc1cc(O)c2c(O)c3c(cc2c1)CC1(O)CC(=O)C(C(C)=O)=C(O)C1(O)C3=O (stereo not shown) [TAN-1612]	10		toxicity at the range of ([1]; BJ5464 cultured in YPD non-defined medium): 50 to 100 mg/L; toxicity at the range of ([1]; BJ5464 cultured in complete synthetic medium): 1 to 10 mg/L
O=c1nc2n(C[C@H](O)[C@H](O)[C@H](O)CO)c3cc(O)ccc3cc-2c(=O)[nH]1 [Fo, 7,8-didemethyl-8-hydroxy-5-deazariboflavin]			Km [2]: 34 µM
OCC1OC(OC23CC4CC(CC(C4)C2)C3)C(O)C(O)C1O (stereo not shown)		48.5	
OCC1OC(OC(c2ccccc2)c2ccccc2)C(O)C(O)C1O (stereo not shown)		25.6	
Cc1c2c(c(O)c3c(O)cccc13)C(=O)[C@]1(O)C(=O)C(C(N)=O)=C(O)[C@@H](N(C)C)[C@@H]1C2 [anhydrotetracycline, reference compound]	10		
